This is an account of results in patent US20160175401A1, “COMPOITIONS AND METHODS FOR MODULATING THERMOGENESIS USING PTH-RELATED AND EGF-RELATED COMPOUNDS” (DANA-FARBER CANCER INSTITUTE INC., priority 2013, published 2016).

Common to all, as to type: cell-based, mouse
Assay [1] has as its system primary white adipocytes. The assay can be described thus: Thermogenic gene expression (qRT-PCR) in primary white adipocytes. Conditions: for induce thermogenic gene expression, such as that of Ucp1 and Dio2: 1 μg/mL of the protein, primary white adipocytes (FIG. 6, FIG. 19E); for induce thermogenic gene expression, such as that of Ucp1 and Dio2 / effect on Ucp1 expression / thermogenic gene expression by EGF proteins: 24 hours; for effect on Ucp1 expression / thermogenic gene expression by EGF proteins: 1 μg/mL or 100 ng/mL, primary white adipocytes (FIG. 14A). How it is done: Inguinal SV fractions were obtained from 30-35 days-old male mice by the following procedure. Inguinal fat tissue was dissected, washed with PBS, minced and digested for 45 min at 37° C. in PBS containing 10 mM CaCl, 2.4 U/mL dispase II (Roche), and 1.5 U/mL collagenase D (Roche). Digested tissue was filtered through a 100-μm cell strainer and centrifuged at 600 g for 5 min to pellet the SV cells which were then resuspended in SV culture medium (DMEM/F12 [1:1; Invitrogen] plus glutamax, pen/strep, and 10% FBS), filtered through a 40-μm cell strainer, centrifugation as above, resuspended in SV culture medium and plated. SV cells were grown to confluency for adipocyte differentiation which was induced by the adipogenic cocktail containing 1 μM dexamethasone, 5 μg/mL insulin, […] isobutylmethylxanthine (DMI), and 1 μM rosiglitazone in SV culture medium. 2 days after induction, cells were maintained in SV culture medium containing 5 μg/mL insulin and 1 μM rosiglitazone. Starting at day 6, cells were maintained in SV culture medium only and treated with various molecules for […] and harvested at day 8.
LLC cells were maintained in DMEM (Invitrogen) with 10% FBS and pen/strep. For conditioned media collection, cells were plated at ⅓ confluency. The following day, medium is changed to FreeStyle expression medium (Invitrogen) which was collected 24 hours later. For concentration of expression medium, LLC conditioned media was filtered using a 3 kilodalton (Kd) cut-off filter (Millipore). Adipocytes were maintained in SV culture media (DMEM/F12 [1:1; Invitrogen] plus glutamax, pen/strep, and 10% FBS) and conditioned media treatment experiments were performed 7 days post-differentiation. When adipocytes were treated with conditioned media for 24 hours, the treatment media were composed of 50% SV culturing medium and 50% LLC conditioned media. When conditioned medium was filtered and concentrated, adipocytes were exposed to 90% SV culturing medium and 10% concentrated LLC conditioned media.
RNA was extracted from cultured cells or frozen tissue samples using TRIzol (Invitrogen), purified with Qiagen RNAeasy minicolums and reverse transcribed using High Capacity cDNA Reverse Transcription kit (Applied Biosystems). Resulting cDNA was analyzed by RT-qPCR. Briefly, 25 ng of cDNA and […] of each primer were mixed with SYBR® GreenER™ PCR Master Mix (Invitrogen). Reactions were performed in 384-well format using an ABI PRISM® 7900HT instrument (Applied Biosystems). Relative mRNA levels were calculated using the comparative CT method normalized to cyclophilin.
Inguinal stroma-vascular fractions were obtained from 30-35-day-old male mice using the following procedure: Inguinal fat tissue was dissected, washed with PBS, minced and digested for 45 min at 37° C. in PBS containing 10 mM CaCl2, 2.4 Uml^−1 dispase 11 (Roche) and 1.5 U ml^−1 collagenaseD (Roche). Digested tissue was filtered through a 100-μm cell strainer and centrifuged at 600 g for 5 min to pellet the stroma-vascular cells. The pellets were then resuspended in adipocyte culture medium (DMEM/F2 (1:1, Invitrogen) plus GlutaMAX, penicillin and streptomycin, and 10% FBS), filtered through a 40-μm cell strainer, centrifuged as above, resuspended in adipocyte culture medium and plated. The stroma-vascular cells were grown to confluence for adipocyte differentiation, which was induced by an adipogenic cocktail containing 1 μM dexamethasone, 5 μg ml^−1 insulin, […] isobutylmethylxanthine (DMI) and 1 μM rosiglitazone in adipocyte culture medium. Two days after induction, cells were maintained in adipocyte culture medium containing 5 μg ml^−1 insulin and 1 μM rosiglitazone. Starting on day 6, cells were maintained in adipocyte culture medium only and treated with various molecules for 2-24 h and harvested on day 8.
LLC cells were maintained in DMEM (Invitrogen) with 10% FBS, and penicillin and streptomycin. For conditioned medium collection, cells were plated at a 1:3 confluence.
On the technique in general: Quantitative PCR measures a nucleic acid by following its amplification.

Assay [2] relates to PKA substrates CREB and HSL. Kind of assay: PKA signalling: protein phosphorylation by western blotting in primary adipocytes. How it is done:
UCP1 protein levels were measured by western blotting in white (FIG. 23A) and brown (FIG. 23B) adipocytes. […] Real-time triplicate readings (upper panel) and their averages (lower panel) are shown (n=4). […] The values are mean±s.e.m. Statistical analysis was conducted using the two-tailed t-test. *, P<0.05; **, P<0.005; ***, P<0.0005, compared with the control group.
(§1) Cells were homogenized in a lysis buffer containing 50 mMTris (pH 7.4), 500 mM NaCl, 1% NP40, 20% glycerol, 5 mM EDTA and 1 mM phenylmethylsulphonyl fluoride (PMSF) supplemented with protease and phosphatase inhibitor cocktails (Roche). The homogenates were centrifuged at 13,000 r.p.m. for 10 min, and the supernatants were used as whole-cell lysates. Protein concentration was determined by Bio-Rad protein assay, and […] protein lysate was separated in each SDS-PAGE lane. The separated proteins were transferred to a polyvinylidene difluoride (PVDF)membrane, which was blotted with antibodies in TBS containing 0.05% Tween (TBS-T) and 5% BSA. For secondary antibody incubation. TBS-T containing 5% milk was used. Enhanced chemiluminescence (ECL) western blotting substrates (Pierce) were used for visualization of the results.
For orientation: In western blotting, separated proteins are transferred to a membrane and probed.

For the next assay, the system named is UCP1. The assay can be described thus: UCP1 protein levels by western blotting in primary adipocytes. As for the experimental part: Cells were homogenized in a lysis buffer containing 50 mM Tris (pH 7.4), 500 mM NaCl, 1% NP40, 20% glycerol, 5 mM EDTA and 1 mM PMSF, supplemented with protease and phosphatase inhibitor cocktails (Roche). The homogenates were centrifuges at 13,000 rpm for 10 min and the supernatants were used as whole cell lysates. Protein concentration was determined by Bio-Rad Bradford assay and 50 μg of proteins were used in each SDS-PAGE run. PVDF membrane was blotted with UCP1 antibody (Abeam) in TBS containing 0.05% Tween and 5% BSA. For secondary antibody incubation, TBS-T containing 5% milk was used. ECL western blotting substrates from Pierce were used for visualization of the results.
as §1

Assay [3] deals with primary white adipocytes. The assay can be described thus: Cellular oxygen consumption rate (XF24 Extracellular Flux Analyzer, Seahorse) of primary adipocytes. As for the experimental part:
The cellular oxygen consumption rate (OCR) of primary adipocytes was determined using an XF24 Extracellular Flux Analyzer (Seahorse Bioscience). […] Twenty-four hours later, adipocyte culture medium was changed to DMEM lacking NaHCO3 but containing 10 mM glucose, 1 mM pyruvate and the treatment chemicals. The uncoupled and maximal OCRs were determined using […] (carbonyl cyanide p-trifluoromethoxyphenylhydrazone), respectively. Complex-1-dependent respiration was inhibited with 3 μM rotenone. Ex vivo tissue respiration was measured using a Clark electrode (Strathkelvin Instruments) as described in Cohen et al. (2014) Cell 156:304-316. Freshly isolated tissues were briefly minced and transferred to the electrode chamber containing a respiration buffer consisting of 1×DPBS (Delbecco's phosphate-buffered saline), 2% BSA, 25 mM glucose and 1 mM pyruvate. Oxygen consumption values were normalized to tissue weight.

“Also recorded” adds a separate entry of the source.

Consider `C=CC(=O)Nc1ccc2ncnc(Nc3ccc(OCc4cccc(F)c4)c(Cl)c3)c2c1` [AST-1306, reference compound], for which, in the assay with primary white adipocytes [1] (AST-1306 1 μM, LLC-cell-conditioned medium, 24 h (FIG. 14C, 21A)), the “effect on LLC cell conditioned media thermogenic (browning) activity” value is given as “does not inhibit or affect; also recorded: does not block; also recorded: largely unaffected”. The “inhibition of BTC, EREG and HBEGF activity (Ucp1 mRNA induction)” value in the assay with primary white adipocytes [1] (AST-1306 1 μM, BTC, EREG, HBEGF 100 ng/ml each, 24 h (FIG. 14B, 20C)) is “inhibit BTC, EREG and HBEGF activity; also recorded: completely blocked Ucp1 mRNA induction”.
For the molecule `O=S(=O)(NCCNC/C=C/c1ccc(Br)cc1)c1cccc2cnccc12` [H89, reference compound], in the assay with primary white adipocytes [1] (H89 50 μM white, 30 μM brown adipocytes, factors 2 h (FIG. 23F-23G)), the “transcriptional regulation (Ucp1, Dio2) by noradrenaline, PTHrP and PTH” value is recorded as “completely inhibited transcriptional regulation”. Besides, the PKA signalling result in assay [2] (H89 50 μM white, 30 μM brown adipocytes, pretreated 1 h (FIG. 23D-23E)) is listed as “blocked PKA signalling”.
As to `NC[C@H](O)c1ccc(O)c(O)c1` [norepinephrine, reference compound], the UCP1 protein levels entry with UCP1 (100 nM NE, 100 ng ml^−1 PTHrP or PTH, 24 h, primary white and brown adipocytes (FIG. 23A-23B)) is “comparably increased UCP1 protein levels”; in the assay with UCP1 (24 hour treatment, norepinephrine 100 nM, peptides 100 ng/mL, western blotting (FIG. 8D)), “significantly increased”. Also, in the assay with primary white adipocytes [3] (100 nM NE, 100 ng ml^−1 PTHrP or PTH, 24 h (FIG. 23C)), the “oxygen consumption, including basal, uncoupled and maximal respiration” value was “significantly raised oxygen consumption”. Besides, the “uncoupled respiration and maximal respiration potential” value with primary white adipocytes [3] (24 hour treatment, norepinephrine 100 nM, peptides 100 ng/mL, SeaHorse (FIG. 8D)) is “significantly elevate”. For the same molecule, the “phosphorylation of the PKA substrates CREB and HSL” value in assay [2] (100 nM NE, 100 ng ml^−1 PTHrP or PTH, 30 min, primary white and brown adipocytes (FIG. 23D-23E)) is listed as “stimulated the phosphorylation”.
For the molecule “EREG: recombinant mouse EREG (Val56-Leu101; Catalog No. 1068-EP/CF), R&D Systems”, in the assay on primary white adipocytes [1], the “induce thermogenic gene expression, such as that of Ucp1 and Dio2” value (shortened to “induce thermogenic gene expression, such”) was “most potent proteins to induce thermogenic gene expression; also recorded: most potent proteins for inducing thermogenic gene expression; also recorded: induced Ucp1 expression”; the “effect on Ucp1 expression / thermogenic gene expression by EGF proteins” value is on record as “largest effect on Ucp1 expression”.
Consider “TGFA: recombinant human TGFA (Val40-Ala89; Catalog No. 239-A-100), R&D Systems”, for which, in the assay with primary white adipocytes [1], the “effect on Ucp1 expression / thermogenic gene expression by EGF proteins” value is reported as “largest effect on Ucp1 expression”.

B1: HBEGF: recombinant human HBEGF (Met1-Leu148; Catalog No. 259-HE-050/CF), R&D Systems (protein)
chain: LVTGESLERLRRGLAAGTSNPDPPTVSTDQLLPLGGGRDRKVRDLQEADLDLLRVTLSSKPQALATPNKEEHGKRKKKGKGLGKKRDPCLRKYKDFCIHGECKYVKELRAPSCICHPGYHGERCHGLSL
As for B1, in the assay on primary white adipocytes [1], the “induce thermogenic gene expression, such” value was “most potent proteins for inducing thermogenic gene expression; also recorded: induced Ucp1 expression”; the “effect on Ucp1 expression / thermogenic gene expression by EGF proteins” value is reported as “largest effect on Ucp1 expression”. In addition, in the assay on primary white adipocytes [1] (listed as HB-EGF), the “induce thermogenic gene expression, such” value was “most potent proteins to induce thermogenic gene expression”.

B2: BTC: recombinant mouse BTC (Asp32-Gln118; Catalog No. 1025-CE-025/CF), R&D Systems (protein)
chain: DGNTTRTPETNGSLCGAPGENCTGTTPRQKVKTHFSRCPKQYKHYCIHGRCRFVVDEQTPSCICEKGYFGARCERVDLFYLQQDRGQ
Take B2: in the assay with primary white adipocytes [1], the “induce thermogenic gene expression, such” value is “most potent proteins to induce thermogenic gene expression; also recorded: most potent proteins for inducing thermogenic gene expression; also recorded: induced Ucp1 expression”.
